Source: patent US20200360391A1, “Medicinal Composition for Treating Intractable Heart Disease” (Osaka University, priority 2016, published 2020)
“Also recorded” adds a separate entry of the source. Where a name gives a salt, the structure may show the parent alone.

Key:
[1] = system: spontaneous dilated cardiomyopathy J2N-k baby hamsters; test: J2N-k baby hamsters (Test 4): administration alone or in combination, echocardiography, body weight; assay type: in vivo, hamster; conditions: for % FS / EF (%) / value of change in E.F. compared with E.F. at 0 W / value of change in F.S. compared with F.S. at 0 W: Test 4, dose O 0.17, C 3.3, E 15, orally twice daily, mean ± S.D.
Experimental: δ-Glycan-deficient spontaneous dilated cardiomyopathy (J2N-k) male hamsters (Japan SLC, Inc.) were delivered at 4 weeks of age. After a 1-week quarantine/acclimation, echocardiography was performed. The hamsters were grouped by stratified random assignment based on the EF values and the body weights so that each administration group was equalized.
Each test substance was individually administered twice daily (at an interval of 8 hours or more) by oral gavage, and echocardiography was performed 4 and 8 weeks after the start of administration (before dissection). Differences from the value before the start of administration (at the time of grouping) (amount of change: A) in each group were examined, and the cardiac function (EF value, FS %, etc.) was compared with that in the vehicle group (Group 1).
The doses were set according to the dose-setting basis in Test 3, and similarly orally administered twice daily. Effects of administration of combinations of two or three of carvedilol, which is a β-blocker widely used clinically, and ozagrel and/or pirfenidone were examined.

[2] = system: rats; conditions: cited from earlier work
[3] = system: spontaneous dilated cardiomyopathy (J2N-k) hamster model; test: Spontaneous dilated cardiomyopathy (J2N-k) hamster model, 8-week administration from 20 weeks of age (Tests 1-3): echocardiography, body weight; conditions: for LVIDs 8 W: hydrochloride hydrate
How it was run: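 Male J2N-k δ-glycan-deficient hamsters (delivered at 18 weeks; 2-week acclimation) were dosed by oral gavage twice daily for 8 weeks in 0.5% CMC-Na (G in distilled water; 5 mL/kg) at human-equivalent doses, e.g. cilostazol 1.7 mg/kg. Camostat PLGA preparation was given 10 mg/kg s.c. every 4 weeks. Echocardiographic EF/FS changes from baseline were assessed at 4 and 8 weeks versus vehicle.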

[4] = system: rat coronary artery complete ischemia model; test: Model of ischemia (MI) by rat coronary artery complete ligation (Tests 1 and 2): echocardiography, body weight; conditions: for value of change in E.F. compared with E.F. on Day 1 / value of change in F.S. compared with F.S. on Day 1: B-MS 100, C-MS 50, F-MS 30 mg/kg s.c. single injection
[5] = cited from earlier work
[6] = system: rats; conditions: subcutaneous administration in rats; cited from earlier work
[7] = MI Test 1, NOAEL doses, 7 Day, mean ± S.D.
[8] = MI Test 1, NOAEL doses, 14 Day, mean ± S.D.
[9] = MI Test 1, NOAEL doses, 29 Day, mean ± S.D.
[10] = MI Test 2, 14 Day, B 150, G 5, I 30, C 10 mg/kg p.o. b.i.d., mean ± S.D.
[11] = MI Test 2, 29 Day, B 150, G 5, I 30, C 10 mg/kg p.o. b.i.d., mean ± S.D.

In the case of `O=C(O)/C=C/c1ccc(Cn2ccnc2)cc1` [Compound C, Ozagrel hydrochloride hydrate], the “Action on decrease in left ventricular systolic function” value ([1]; Test 4, clinical doses p.o. b.i.d., 8 weeks, hydrochloride hydrate) is reported as “significant suppression action on a decrease in left ventricular systolic function; also recorded: action of significantly suppressing a decrease in left ventricular systolic function”, the “Body weight 3 W” value ([1]; Test 4, p.o. b.i.d., clinical dose) is reported as 85.4 g and the “% FS” value ([1]; 0 W (start of administration)) is reported as 39.1 ± 2.7%. The “EF (%)” value ([1]; 0 W (start of administration)) was 77.3 ± 2.9%, the “% FS” value ([1]; 4 W) was 34.9 ± 1.5% and the “EF (%)” value ([1]; 4 W) was 72.3 ± 2.0%. For the same compound, the “value of change in E.F. compared with E.F. at 0 W” value ([1]; 4 W) was <−5.0 ± 1.4> %, the “value of change in F.S. compared with F.S. at 0 W” value ([1]; 4 W) was <−4.2 ± 1.4> % and the “% FS” value ([1]; 8 W) was 30.7 ± 2.0%. The “EF (%)” value ([1]; 8 W) was 66.6 ± 2.8%, the “value of change in E.F. compared with E.F. at 0 W” value ([1]; 8 W) was <−10.7 ± 2.0> % and the “value of change in F.S. compared with F.S. at 0 W” value ([1]; 8 W) was <−8.4 ± 1.6> %. The No-observed-effect level ([2]; rats, 3 months) was 150 mg/kg, the “Dose at which toxic findings were observed” value ([2]; repeated oral administration in rats, duration per compound) was at least 500 mg/kg and the “LVIDd 4 W” value ([3]; Test 1, p.o. b.i.d.) was 7.1 mm. The “LVIDd 8 W” value ([3]; Test 1, p.o. b.i.d.) was 7.4 mm, the “LVIDs 4 W” value ([3]; Test 1, p.o. b.i.d.) was 5.9 mm and the “LVIDs 8 W” value ([3]; Test 1, p.o. b.i.d.) was 6.1 mm. The “LVIDs 8 W” value ([3]; Test 1, p.o. b.i.d., listed as ozagrel) was “significantly lower”, the “Cardiac function (EF, FS %) actual measured value or change rate compared with control, 4 W value” ([3]; Test 3, clinical dose) was “significant cardiac function improvement effect” and the “Cardiac function improvement effect” value ([3]; Test 3, clinical dose, summary) was “cardiac function improvement effect was observed”. The “Minimal effective dose (screening 2)” value ([3]; mg/kg twice per day, oral preparation) was 3.3 mg/kg, the “Action on left ventricular systolic function” value ([4]; MI Test 1, 28-day repeated oral administration b.i.d., NOAEL-based doses) was “suppression action on the deterioration of left ventricular systolic function” and the “Body weight” value ([4]; MI Test 1, NOAEL doses, 1 Day (grouping), mean ± S.D.) was 234.8 ± 8.3 g. For the same compound, the % FS: value of change compared with the value on Day 1 [4, 7] was 0%, the “Body weight” value [4, 7] was 240.0 ± 9.3 g and the EF: value of change compared with the value on Day 1 [4, 7] was -1%. For the same compound, the % FS: value of change compared with the value on Day 1 [4, 8] was -1%, the “Body weight” value [4, 8] was 261.2 ± 10.8 g and the EF: value of change compared with the value on Day 1 [4, 8] was -2%. For the same compound, the “Body weight” value ([4]; MI Test 1, NOAEL doses, 21 Day, mean ± S.D.) was 278.9 ± 12.5 g, the % FS: value of change compared with the value on Day 1 [4, 9] was -3% and the “Body weight” value [4, 9] was 299.8 ± 13.9 g. The EF: value of change compared with the value on Day 1 [4, 9] was -5%, the “EF actual measured value and/or amount of change compared with control” value ([4]; MI Test 2, Day 14 and Day 29) was “significantly higher” and the “Values of cardiac function (EF, FS %) compared with control” value ([4]; MI Test 2, oral b.i.d. 4 weeks or single subcutaneous administration) was “significantly higher”. The “Body weight” value ([4]; MI Test 2, 1 Day, B 150, G 5, I 30, C 10 mg/kg p.o. b.i.d., B MS 100, C MS 50, I MS 30 mg/kg s.c. single injection, mean) was 240.1 g, the “Body weight” value ([4]; MI Test 2, 7 Day, B 150, G 5, I 30, C 10 mg/kg p.o. b.i.d., B MS 100, C MS 50, I MS 30 mg/kg s.c. single injection, mean) was 245.7 g and the “Body weight” value ([4]; MI Test 2, 14 Day, B 150, G 5, I 30, C 10 mg/kg p.o. b.i.d., B MS 100, C MS 50, I MS 30 mg/kg s.c. single injection, mean) was 273.3 g. For the same compound, the “value of change in E.F. compared with E.F. on Day 1” value [4, 10] was <−4.9 ± 2.3> %, the “value of change in F.S. compared with F.S. on Day 1” value [4, 10] was <−2.7 ± 1.3> % and the “Body weight” value ([4]; MI Test 2, 21 Day, B 150, G 5, I 30, C 10 mg/kg p.o. b.i.d., B MS 100, C MS 50, I MS 30 mg/kg s.c. single injection, mean) was 292.8 g. The “Body weight” value ([4]; MI Test 2, 29 Day, B 150, G 5, I 30, C 10 mg/kg p.o. b.i.d., B MS 100, C MS 50, I MS 30 mg/kg s.c. single injection, mean) was 310.4 g, the “value of change in E.F. compared with E.F. on Day 1” value [4, 11] was <−10.0 ± 3.9> % and the “value of change in F.S. compared with F.S. on Day 1” value [4, 11] was <−5.3 ± 2.1> %. The “Safety at the daily amount” value ([5]; camostat 600 mg daily, ozagrel 400 mg daily) was “no safety problems except for slightly prolonged bleeding time”, the “Abdominal / stomach / gastric discomfort cases” value ([5]; human, in vivo) was 0.1% and the Bleeding tendency cases ([5]; human, in vivo) was 0.1%. The “Elevated AST (GOT) and/or ALT (GPT) / liver enzyme cases” value ([5]; human, in vivo) was 0.3%, the “Itching / pruritus cases” value ([5]; human, in vivo) was 0.2% and the “Nausea cases (cilostazol: nausea/vomiting)” value ([5]; human, in vivo) was 0.3%. The Rash cases ([5]; human, in vivo) was 0.2%, the “Cases with side effects (including laboratory test value abnormality)” value ([5]; share of cases evaluated for safety) was 2.0% and the LD50 [6] was 2049 mg/kg.
